# Reference: US8357697B2, “Substituted 3-isobutyl-9,10-dimethoxy-1,3,4,6,7,11b-hexahydro-2H-pyrido[2,1-A]isoquinolin-2-ol compounds and methods relating thereto” (Neurocrine Biosciences, Inc., priority 2006, dated 2013)
# pKi: −log10 of the molar value.
# How the values were obtained:
# human hepatocytes = experiment: Stability of compounds in human hepatocytes; type: in vitro ADME; conditions: 1 μM, 0-60 min, FIGS. 1a-1c
# Protocol: Cryopreserved human hepatocytes from 12 individual donors were thawed according to the supplier's instruction and pooled. Cell viability was determined to be more than 85%. TBZ (1 μM) was incubated with individual human hepatocytes (1×10^6 cells/mL) at 37° C. with 95% O2 and 5% CO2 for 0, 5, 15, 30 and 60 min. TBZ in DMSO was added to achieve 1.0 μM (DMSO was less than 0.5% v/v). All concentrations and cell contents were relative to the final incubation volume of 100 μL. The incubation was terminated by mixing 100 μL of ice-cold acetonitrile in 1% formic acid containing dextromethorphan (1.0 μM) as internal standard for LC/MS analysis. Precipitated proteins were removed by centrifugation (1500-2500×g for 30 min at 15° C.).
# Briefly, samples were separated with a gradient HPLC method by Acquity HPLC systems consisting of a pump, a column heater (40° C.), and a vacuum degasser/mobile phase tray. Mobile phase A was water in 0.1% formic acid and mobile phase B was acetonitrile in 0.1% formic acid. The gradient elution was as follows: mobile phase B: 0-10% at 0-0.75 min, 40-90% at 1.25-1.5 min, 90-0% at 1.75-2.0 min, and run time was 3 min. The reverse phase column was a BEH C18 column (50×2.1 mm, 1.7 μm). Flow rate was 0.8 mL/min and injection volume was 7.5 μL. The samples were monitored with API-3000 mass spectrometer and ESI ion source in positive mode, TBZ m/z 318.4>220.4, HTBZ m/z 320.3>302.3, and dextromethorphan m/z 272.2>147.2.
# [1] = humans, background statement; cited from earlier work
# Dopamine D2S receptor = target: T1, Dopamine D2S receptor (Homo sapiens, UniProt P14416); experiment: Dopamine D2S receptor competition binding ([3H]spiperone); conditions: for inhibition at 10 µM: read-out: D2S (h) % inhibition at 10 uM
# T1 construct: expressed in transfected cells; host or cells: CHO cells
# Protocol: (§1) The four HTBZ stereoisomers and compounds of the present invention were tested for receptor specificity by screening against a panel of 80 receptors, ion channels and transporters (High-throughput profile, Cerep, S. A.).
# (a) Dopamine D2S receptor:
# Reference: Grandy et al., (1989) Proc. Natl. Acad. Sci. USA 86: 9762-6
# (§2) Source: Human recombinant (CHO cells)
# Ligand: [3H]spiperone, 1.0 nM
# Incubation time/temperature: 90 min/25° C.
# Incubation buffer: 50 mM HEPES, 100 mM NaCl, 1 mM EDTA, 3 mM MgCl2, pH 7.4
# Non-specific ligand: clozapine (10 μM)
# Specific binding: 600 cpm
# (§3) Quantitation method: Scintillation counting
# Dopamine D4.4 receptor = target: T2, Dopamine D4.4 receptor (Homo sapiens, UniProt P21917); experiment: Dopamine D4.4 receptor competition binding ([3H]spiperone); conditions: for inhibition at 1 µM: read-out: D4.4 (h) % inhibition at 1 uM; for inhibition at 10 µM: read-out: D4.4 (h) % inhibition at 10 uM
# T2 construct: expressed in transfected cells; host or cells: CHO cells
# T2 sequence (P21917 1-419): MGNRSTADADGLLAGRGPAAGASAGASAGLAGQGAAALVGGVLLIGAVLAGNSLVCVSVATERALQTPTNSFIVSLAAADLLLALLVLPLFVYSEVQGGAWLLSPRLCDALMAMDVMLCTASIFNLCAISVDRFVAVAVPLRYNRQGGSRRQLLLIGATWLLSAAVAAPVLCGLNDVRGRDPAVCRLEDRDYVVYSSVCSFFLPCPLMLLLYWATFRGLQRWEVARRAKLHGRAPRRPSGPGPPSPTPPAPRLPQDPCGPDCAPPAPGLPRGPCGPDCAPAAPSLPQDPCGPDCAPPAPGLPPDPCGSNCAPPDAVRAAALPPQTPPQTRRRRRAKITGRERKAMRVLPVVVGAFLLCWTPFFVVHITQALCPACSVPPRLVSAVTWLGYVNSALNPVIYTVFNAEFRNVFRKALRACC
# Protocol: as §1
# (b) Dopamine D4.4 receptor:
# as §2
# Ligand: [3H]spiperone, 0.3 nM
# Incubation time/temperature: 60 min./22° C.
# Non-specific ligand: (+)butaclamol (10 μM)
# as §3
# VMAT2 = target: T3, VMAT2 (Rattus norvegicus, UniProt Q01827); experiment: VMAT2 competition binding assay ([3H]-dihydrotetrabenazine); conditions: mean±SD, n in brackets; at least two independent experiments; read-out: pKi (n), VMAT2 affinity from competition binding studies (converted)
# T3 construct: on rat forebrain homegenate (100 μg membrane protein per well); from tissue; host or cells: rat striatum (Procedure A, vesicles) or Sprague-Dawley rat forebrain homogenate (Procedure B)
# Protocol: Preparation of Rat Striatal Vesicles
# Rat striata from three rats are pooled and homogenized in 0.32 M sucrose. The homogenate is then centrifuged at 2,000×g for 10 min at 4° C. and the resulting supernatant is centrifuged at 10,000×g for 30 min at 4° C. The resulting pellet containing the enriched synaptosomal fraction (2 mL) is subjected to osmotic shock by addition of 7 mL of distilled H2O, and subsequently the suspension is homogenized. The osmolarity is restored by the addition of 0.9 mL of 0.25 M HEPES and 0.9 mL of 1.0 M neutral L-(+)-tartaric acid dipotassium salt buffer (pH 7.5), followed by a 20 min centrifugation (20,000×g at 4° C.). […]
# Aliquots of the vesicle suspension (0.16 mL, 15 μg of protein/mL) are incubated with competitor compounds (ranging from 1E-6M to 1E-12M) and 2 nM [^3H]-dihydrotetrabenazine (HTBZ; specific activity: 20 Ci/mmol, American Radiolabeled Chemicals, Inc) for 1 h at room temperature in a total volume of 0.5 mL. […] Nonspecific binding is determined using 20 μM tetrabenazine (TBZ). […] Bound radioactivity is determined by scintillation spectrometry.
# Following incubation at 25° C. for two hours, bound radioligand was collected by rapid filtration onto GF/B glass fiber filters using a Unifilter-96 Harvester (PerkinElmer). […] Bound radioligand was quantified by scintillation counting using a Topcount NXT (PerkinElmer). […]
# [2] = tested on: panel of 80 receptors, ion channels and transporters; experiment: Receptor selectivity binding assays (Cerep high-throughput profile); conditions: versus the dopamine receptors tested
# Protocol: as §1
# [3] = Stability in rat liver microsomes; type: in vitro ADME; conditions: 1 μM, 0-60 min, FIGS. 2a-2f
# [4] = Stability in dog liver microsomes; type: in vitro ADME; conditions: 1 μM, 0-60 min, FIGS. 2a-2f
# [5] = Stability in human liver microsomes; type: in vitro ADME; conditions: 1 μM, 0-60 min, FIGS. 2a-2f
# Protocol: Briefly, pooled human liver microsomes (0.1 or 0.5 mg/mL; n>10; mixed gender) were incubated at 37° C. with the test compound in the presence of an NADPH-generating system containing 50 mM, pH 7.4 potassium phosphate buffer, 3 mM magnesium chloride, 1 mM EDTA, 1 mM NADP, 5 mM G-6-P, and 1 Unit/mL G-6-PD.
# Incubations were conducted in six modified 2.0-mL, 96-well, deep-well plates in 1 μM of each compound (0.01% DMSO) with a total volume of 250 μl. Each plate, representing a single time point, contained 96 Titertube® Micro Tubes allowing for duplicates of 48 compounds at each time point (0, 5, 10, 20, 40, and 60 minutes). Reaction was stopped by the addition of an appropriate stop reagent (0.3 mL of acetonitrile containing a proprietary internal standard). Precipitated proteins were removed by centrifugation for 15 min at 3000 rpm, and the supernatant fluid (˜0.1 mL) was analyzed by LC/MS for the % of parent compound remaining.
# Samples were separated with a gradient HPLC method by Agilent LC systems consisting of a pump, a column heater (40° C.), and a vacuum degasser/mobile phase tray. Mobile phase A was water in 0.1% formic acid and mobile phase B was acetonitrile in 0.1% formic acid. […] The samples were monitored with API-3000 mass spectrometer and ESI ion source in positive mode, TBZ m/z 318.4>220.4, HTBZ m/z 320.3>302.3, and dextromethorphan m/z 272.2>147.2.
# [6] = Pharmacokinetic evaluation in rat, single oral dose; type: in vivo
# Protocol: In brief, single oral dose (10 mg/kg) of 2-1 and 3-1 in 10% PEG in 0.25% methylcellulose in milli Q water was administered to rats (3 rats/dose) for a pharmacokinetic evaluation. Serial sampling was used to collect blood samples, which were taken from each treated animal at nine time points ranging from pre-dose to 24 hours post dose (0, 0.25, 0.5, 1, 2, 4, 6, 8 and 24 hours) for the oral administration. Plasma samples were stored at −80° C. or below until analysis.
# Plasma samples were thawed on ice, and 50 μL of plasma was transferred to a 96-well plate. Plasma proteins were precipitated by addition of pre-chilled 150 μL acetonitrile (ACN) containing 75 ng/mL internal standard. Additional 50 μL of ACN/water (60:40) was added into each sample. Calibration curve samples were prepared by a serial dilution in ACN/water (60:40). Fifty microliter of each standard sample was transferred to a 96-well plate followed by adding 150 μL acetonitrile (ACN) containing 75 ng/mL internal standard and 50 μL blank rat plasma. The plates were capped, mixed and centrifuged at 3000 rpm for 20 min. The supernatant was collected and injected into a LC-MS/MS system for quantification. […] of QC samples (4, 40, 400, 800 ng/ml) for 3-1,2-1 and 1d.1 were used as quality control for the studies needed and prepared in a same way as the standards. Quantification was performed by fitting peak area ratios to a weighted (1/x^2) linear calibration curve.
# (§4) Descriptive pharmacokinetics were derived and evaluated based on the plasma concentrations of 3-1, 2-1 and 1d.1 from each individual […]. Pharmacokinetic parameters were determined using Non-Compartmental Analysis of the plasma concentration-time profiles of 3-1, 2-1 and 1d.1 in WinNonlin pharmacokinetic modeling software Professional Version 5.0.1 program (Pharsight Corporation, Mountain View, Calif.).
# [7] = Pharmacokinetic evaluation in dog, single oral dose; type: in vivo; conditions: oral 10 mg/kg (2-1), FIGS. 3c-3d
# Protocol: In brief, a single oral dose (6.1 mg/kg for 3-1 and 10 mg/kg for 2-1) in 10% PEG in 0.25% methylcellulose in milli Q water was administered to dogs (3 dogs/dose) for a pharmacokinetic evaluation. Serial sampling was used to collect blood samples, which were taken from each treated animal at nine time points ranging from pre-dose to 24 hours post dose ([…]) for the oral administration. Plasma samples were stored at −80° C. or below until analysis.
# Plasma samples were thawed on ice, and 50 μL of plasma was transferred to a 96-well plate. Plasma proteins were precipitated by addition of pre-chilled 150 μL acetonitrile (ACN) containing 75 ng/mL internal standard. Additional 50 μL of ACN/water (60:40) was added into each sample. […] The supernatant was collected and injected into a LC-MS/MS system for quantification. […] Quantification was performed by fitting peak area ratios to a weighted (1/x^2) linear calibration curve.
# as §4
# T1 sequence (P14416 1-414 isoform P14416-2): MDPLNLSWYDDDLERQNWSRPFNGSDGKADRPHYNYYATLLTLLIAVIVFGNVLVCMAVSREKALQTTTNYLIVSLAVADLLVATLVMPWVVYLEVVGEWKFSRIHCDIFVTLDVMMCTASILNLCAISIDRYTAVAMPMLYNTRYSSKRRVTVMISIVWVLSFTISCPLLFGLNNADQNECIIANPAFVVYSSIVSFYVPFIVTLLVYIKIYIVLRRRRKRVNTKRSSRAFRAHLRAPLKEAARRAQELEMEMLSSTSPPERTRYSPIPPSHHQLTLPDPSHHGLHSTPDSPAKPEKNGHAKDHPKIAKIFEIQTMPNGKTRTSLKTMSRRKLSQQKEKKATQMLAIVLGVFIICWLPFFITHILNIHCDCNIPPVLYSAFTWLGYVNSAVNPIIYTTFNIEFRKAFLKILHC
# T3 sequence (Q01827 whole entry): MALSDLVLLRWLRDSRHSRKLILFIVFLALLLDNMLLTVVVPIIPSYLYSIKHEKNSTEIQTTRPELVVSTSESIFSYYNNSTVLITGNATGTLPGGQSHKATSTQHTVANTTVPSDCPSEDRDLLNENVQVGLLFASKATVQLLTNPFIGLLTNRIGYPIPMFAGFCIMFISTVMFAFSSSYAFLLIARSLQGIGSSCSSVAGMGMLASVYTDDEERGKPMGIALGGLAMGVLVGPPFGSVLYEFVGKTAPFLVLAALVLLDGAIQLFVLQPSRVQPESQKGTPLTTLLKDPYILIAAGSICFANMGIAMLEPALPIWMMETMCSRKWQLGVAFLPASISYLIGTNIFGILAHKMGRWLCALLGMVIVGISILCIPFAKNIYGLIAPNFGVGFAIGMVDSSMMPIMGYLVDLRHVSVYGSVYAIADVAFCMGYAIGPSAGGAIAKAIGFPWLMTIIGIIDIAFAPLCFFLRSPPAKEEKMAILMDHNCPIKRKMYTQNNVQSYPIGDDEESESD
structure (smiles),measurement,setting,value
"COc1cc2c(cc1OC)C1CC(=O)C(CC(C)C)CN1CC2 (racemic) [Tetrabenazine, 3-Isobutyl-9,10-dimethoxy-1,3,4,6,7,11b-hexahydro-2H-pyrido[2,1-a]isoquinolin-2-one, reference compound]","conversion in human hepatocytes to HTBZ (tetrabenazine) or to 1d.1 (compounds 2-1, 3-1)",human hepatocytes,rapid
same,bioavailability,[1],fairly low and variable
"COc1cc2c(cc1OC)[C@H]1C[C@@H](O)[C@H](CC(C)C)CN1CC2 [2R, 3R, 11bR-HTBZ, (2R,3R,11bR)-3-isobutyl-9,10-dimethoxy-1,3,4,6,7,11b-hexahydro-2H-pyrido[2,1-a]isoquinolin-2-ol]",inhibition at 10 µM,Dopamine D2S receptor,-6%
same,inhibition at 1 µM,Dopamine D4.4 receptor,0%
"COc1cc2c(cc1OC)[C@@H]1C[C@@H](O)[C@@H](CC(C)C)CN1CC2 [2R, 3S, 11bS-HTBZ]",pKi,Dopamine D2S receptor,7.24
same,binding/inhibition at D2(S) (in words),Dopamine D2S receptor,high affinity binding
same,pKi,Dopamine D4.4 receptor,7.17
"COc1cc2c(cc1OC)[C@H]1C[C@H](O)[C@H](CC(C)C)CN1CC2 [2S, 3R, 11bR-HTBZ, (2S,3R,11bR)-3-isobutyl-9,10-dimethoxy-1,3,4,6,7,11b-hexahydro-2H-pyrido[2,1-a]isoquinolin-2-ol]",binding/inhibition at D2(S) (in words),Dopamine D2S receptor,some minor inhibition
same,inhibition at 30 µM,Dopamine D2S receptor; read-out: D2S (h) % inhibition at 30 uM,17%
same,inhibition at dopamine D4.4 receptor (in words),Dopamine D4.4 receptor,some minor inhibition
same,inhibition at 10 µM,Dopamine D4.4 receptor,30%
"COc1cc2c(cc1OC)[C@@H]1C[C@H](O)[C@@H](CC(C)C)CN1CC2 [2S, 3S, 11bS-HTBZ]",pKi,Dopamine D2S receptor,6.72
same,binding/inhibition at D2(S) (in words),Dopamine D2S receptor,high affinity binding
same,inhibition at 1 µM,Dopamine D4.4 receptor,9%
"COc1cc2c(cc1OC)[C@H]1C[C@@H](OC(=O)[C@@H](N)C(C)C)[C@H](CC(C)C)CN1CC2 [Compound 2-1, (S)-2-Amino-3-methyl-butyric acid (2R,3R,11bR)-3-isobutyl-9,10-dimethoxy-1,3,4,6,7,11b-hexahydro-2H-pyrido[2,1-a]isoquinolin-2-yl ester]",Ki,VMAT2,200 nM
same,inhibition at 10 µM,Dopamine D2S receptor,2%
same,inhibition at 10 µM,Dopamine D4.4 receptor,13%
same,selectivity for VMAT2 (in words),[2],demonstrated selectivity for VMAT2
same,"conversion in human hepatocytes to HTBZ (tetrabenazine) or to 1d.1 (compounds 2-1, 3-1)",human hepatocytes,comparatively slow
same,"conversion to 1d.1 in rat liver microsomes, compared with compound 3-1",[3],slower
same,"conversion to 1d.1 in dog liver microsomes, compared with compound 3-1",[4],slower
same,"conversion to 1d.1 in human liver microsomes, compared with compound 3-1",[5],slower
same,plasma half-life of 1d.1 upon oral administration of compound 2-1 relative to compound 3-1,"[6]; oral 10 mg/kg, FIGS. 3a-3b",2-3 times
same,plasma half-life of 1d.1 upon oral administration of compound 2-1 relative to compound 3-1,[7],2-3 times
"CCOC(=O)O[C@@H]1C[C@@H]2c3cc(OC)c(OC)cc3CCN2C[C@H]1CC(C)C [Compound 3-1, Carbonic acid ethyl ester (2R,3R,11bR)-3-isobutyl-9,10-dimethoxy-1,3,4,6,7,11b-hexahydro-2H-pyrido[2,1-a]isoquinolin-2-yl ester]",Ki,VMAT2,12.6 nM
same,inhibition at 10 µM,Dopamine D2S receptor,15%
same,inhibition at 10 µM,Dopamine D4.4 receptor,15%
same,selectivity for VMAT2 (in words),[2],demonstrated selectivity for VMAT2
same,"conversion in human hepatocytes to HTBZ (tetrabenazine) or to 1d.1 (compounds 2-1, 3-1)",human hepatocytes,rapid
same,parent compound in rat plasma after oral administration,"[6]; oral 10 mg/kg, limit of quantification 1 ng/mL",No 3-1 was detected
same,rat plasma concentration time profile of 1d.1 from 3-1 compared with 1d.1 administered orally,"[6]; oral, FIG. 3a",indistinguishable
